Activity calls are given as the source filed them. The calls are words filed in the database; no cut-off is given here.
How the values were obtained:
[1] = system: Mus musculus; assay: Decrease in life span of mice treated with compound dose of 160 mg/kg; type: functional
[2] = system: Plasmodium berghei; assay: Percent inhibition of adenosine uptake by Plasmodium berghei; type: functional
[3] = system: Plasmodium berghei; assay: Percent inhibition of hypoxanthine uptake by Plasmodium berghei; type: functional
[4] = system: Salmonella typhimurium; assay: Mutagenic response at 1000 nmol/plate or lower for strain TA 100 of Salmonella Typhimurium; Not significant; type: functional, organism-based; details: Salmonella enterica subsp. enterica serovar Typhimurium
[5] = system: Salmonella typhimurium; assay: Mutagenic response at 1000 nmol/plate or lower for strain TA 98 of Salmonella Typhimurium; Not significant; type: functional, organism-based; details: Salmonella enterica subsp. enterica serovar Typhimurium
[6] = system: Mus musculus; assay: Decrease in life span of mice treated with compound dose of 320 mg/kg; type: functional

SMILES | Inhibition [2] [%] | Inhibition [3] [%] | also measured
CCCCN(CCCC)CCC(O)c1c2ccccc2nc2ccccc12 (stereo not drawn) |  |  | Decrease in life span [1]: 0.4 days
OC(CN1CCCCC1)c1c2ccccc2nc2ccccc12 (stereo not drawn) | 31 | 50 | 
c1ccc2c(C3CO3)c3ccccc3nc2c1 (stereo not drawn) |  |  | Mutagenicity [4]: inactive; Mutagenicity [5]: inactive
CCN(CC)CCCC(C)Nc1c2ccc(Cl)cc2nc2ccc(OC)cc12 (stereo not drawn) [QUINACRINE] | 80 | 92 | 
CCCCN(CCCC)CC(O)c1ccc2ncc3ccccc3c2c1 (stereo not drawn) |  |  | Decrease in life span [6]: 0.1 days

Reference: ChEMBL document CHEMBL1121675, “Syntheses of 9-acridine- and 2-phenanthridinemethanols as potential antimalarials” (1981)
